Test results reported in US20070142456A1, “Method for inhibiting cancer development by fatty acid synthase inhibitors” (FASgen, LLC, priority 2002, published 2007).

Assays:
[1] = test system: fatty acid synthesis in NT5 cancer cells; assay: Inhibition of fatty acid synthesis: [14C]acetate incorporation into total lipids in NT5 cells; type: cell-based, mouse; conditions: 4 h treatment, [14C]acetate during last 2 h, FIG. 1
Procedure: (See FIG. 1). 5×10^4 NT5 cells were plated in 24-well plates. Following overnight attachment, cells were treated with cerulenin and C75 diluted in DMSO at 5 mg/ml for 4 h, with control cells receiving vehicle alone. During the last 2 h of drug treatment, cells were treated with 1 μCi [^14C]acetate. Total lipids were then extracted and counted. Statistical analysis (i.e., two tailed t-tests) of the results are as follows: Control-C75 5 μg/ml, p=0.116; Control-C75 10 μg/ml, p=0.018; Control-Cerulenin 5 μg/ml, p=0.002; Control-Cerulenin 10 μg/ml, p=0.002.
NT cell lines are established from tumors that developed in transgenic mice (Reilly, R., Gottlieb, M., Ercolini, A., Machiels, J., Kane, C., Okoye, F., Muller, W., Dixon, K., and Jaffee, E., “HER-2neu Is a Tumor Rejection Target in Tolerized HER-2/neu Transgenic Mice,” Cancer Research, 60: 3569-3576, 2000; Reilly, R., Machiels, J., Emens, L., Ercolini, A., Okoye, F., Lei, R., Weintraub, D., and Jaffee, E., “The Collaboration of Both Humoral and Cellular HER-2/neu-targeted Immune Responses Is Required for the Complete Eradication of HER-2/neu-expressing Tumors,” Cancer Research, 61: 880-883, 2001), and provide an in vitro model for testing the FAS inhibitors C75 and cerulenin.

NT5 cancer cells = assay: Inhibition of NT5 cancer cell growth in vitro (crystal violet, O.D. 490 nm); type: cell-based, mouse; conditions: 72 hours, FIG. 2
Procedure: (See FIG. 2). 1×10^4 cells were plated in 24-well plates. Following overnight attachment, cells were treated with C75 or cerulenin diluted in DMSO at 5 mg/ml, with control cells receiving vehicle alone. After 72 hours, cells were stained with crystal violet (0.2% in 10% methanol), solubilized in 1% SDS, and the O.D. measured at 490 nm. Two-tailed t-test: Control-C75 5 μg/ml, p=0.0003; Control-C75 10 μg/ml, p<0.0001; Control-Cerulenin 5 μg/ml, p<0.0001; Control-Cerulenin 10 μg/ml, p<0.0001.

[2] = test system: NT5 cancer cell allografts; assay: Growth of NT5 cancer cell allografts in FVB/N mice; type: in vivo; conditions: 30 mg/kg intraperitoneal every six days, FIG. 3
Procedure: (See FIG. 3). Fourteen animals received 0.1 ml packed cultured NT5 cells in the flank. When measurable tumors appeared, seven animals were treated with C75 (30 mg/kg in 0.1 ml RPMI, intraperitoneal injection) every six days and seven animals received vehicle control. Error bars in FIG. 3 represent standard error of the mean.

[3] = test system: HER-2/neu breast cancer transgenic mice; assay: Inhibition of cancer development in HER-2/neu breast cancer transgenic mouse model; type: in vivo
From the text: Derived from the FVB/N strain, neu-N transgenic mice express the non-transforming rat neu cDNA under the control of a mammary-specific promoter. As a consequence, the mice develop spontaneous mammary adenocarcinomas beginning at approximately 125 days, with nearly all of the mice harboring tumors by 300 days (Guy, C., Webster, M., Schaller, M., Parsons, T., Cardiff, R., and Muller, W., “Expression of the neu protooncogene in the mammary epithelium of transgenic mice induces metastatic disease,” Proc. Natl. Acad. Sci. USA, 89: 10578-10582, 1992). […] Although the activated neu model has the advantage of more rapid tumor development (Guy, C., Cardiff, R., and Muller, W., “Activated neu induces rapid tumor progression,” Journal of Biological Chemistry, 271: 7673-7678, 1996), this point mutation has not been identified in human breast cancer (Lofts, F. and Gullick, W., “C-erbB2 amplification and overexpression in human tumors,” Cancer Treat. Res., 61: 161-179, 1992). Thus, the HER-2/neu breast cancer transgenic mouse model more closely resembles human disease where neu is overexpressed, not mutated.
(See FIG. 4) Thirty HER-2/neu breast cancer transgenic mice were used for the study. Fifteen (15) mice received weekly doses of C75 (30 mg/kg in 0.1 ml RPMI) for three months beginning at 5 weeks of age and 15 mice received vehicle alone. Mice were observed daily and the first appearance of breast tumors were recorded. Two (2) mice in the controls and 6 in the treated group died during the study. […] Fifty-percent (50%) of the control mice developed tumors after approximately 200 days versus 300 days for the C75 treated animals. Moreover, three treated animals remained tumor free for nearly 18 months, the duration of their lives.

[4] = test system: mammary glands of neu-N transgenic mice; assay: Mechanism of action: mammary gland whole mounts and immunohistochemistry in neu-N transgenic mice; type: in vivo, mouse; conditions: 30 mg/kg ip weekly
Procedure: (§1) Fifteen 8-10 week old, neu-N transgenic mice were treated intraperitoneally (ip) with C75 at 30 mg/kg weekly, along with fifteen vehicle controls (RPMI). Three mice from the treatment and control groups were sacrificed by carbon dioxide asphyxiation at two-week intervals beginning at week two (two weeks after the first C75 treatment at 8-10 weeks of age). All animals were injected with 1 mg of BrdU two hours prior to sacrifice. Entire inguinal mammary glands were removed along with the intramammary lymph node that was grossly identifiable. Additionally, kidneys, liver and skin samples were collected from each animal. The […] from one side and the kidneys, liver and skin samples were fixed in neutral-buffered formalin, the other was fixed in Carnoy's fixative for whole-mount preparation. In addition, mammary glands from a non-transgenic age-matched FVB/N control mouse were removed for similar analysis at week 10 (age 18-20 weeks).
Following fixation in 10% neutral-buffered formalin for 24 hours, the mammary glands were embedded in paraffin. Six 4 micron slides were prepared from each tissue block, with the first slide stained with hematoxylin and eosin. The remaining unstained sections were utilized for immunohistochemical analysis of the preneoplastic lesions and surrounding breast tissue with the following antibodies: FAS, BrdU and p21/Waf-1 (Dako, Carpinteria, Calif.), Akt and Phospho-Akt (Cell Signaling Technology, Beverly, Mass.), and neu (Santa Cruz Biotechnology, Inc., Santa Cruz, Calif.) apoptosis (ApopTag Peroxidase In Situ Oligo Ligation Kit, Serologicals Corporation, Temecula, Calif.). Staining was assessed by counting the number of positive cells per 500 total cells in the ductal and lobular structures at 400×. Statistical analysis was performed using t-tests on Prism 3 software. The Carnoy's fixed tissue was stained with carmine red as described and whole-mounted on glass slides.

[5] = test system: mammary glands of FVB/N mice; assay: Mammary gland development in non-transgenic FVB/N control mice treated with C75; type: in vivo; conditions: FVB/N animals, FIG. 9
Procedure: as §1

[6] = 30 mg/kg weekly for three months beginning at 5 weeks of age
[7] = immunohistochemistry, versus controls and FVB/N mice
[8] = mammary tissue, versus controls and FVB/N mice

SMILES | inhibition of fatty acid synthesis in NT5 cells [1] | growth of NT5 cancer cells (O.D. 490 nm) (NT5 cancer cells) | growth of NT5 tumor cell allografts [2] | time after which 50% of the mice developed tumors [3, 6] [days] | tumor development (log-rank analysis) [3, 6] | time three treated animals remained tumor free (duration of their lives) ([3]; 30 mg/kg weekly for three months, three of 15 treated animals) [months] | development of cancer ([3]; HER-2/neu transgenic mice, FIG. 4) | time three animals remained tumor free (duration of their lives) ([3]; as restated in the description) [years] | mice that died during the study ([3]; treated group of 15 mice, 30 mg/kg weekly, 2 died in controls) [mice] | tissue restriction of the effects (other normal duct structures in skin, liver or kidney) [4] | number of mammary duct structures, their thickness and number of budding epithelial structures ([4]; following 8-10 weeks of treatment, versus vehicle controls and FVB/N animals) | Akt expression [4, 7] | FAS expression [4, 7] | Phospho-Akt expression [4, 7] | neu expression [4, 7] | p21/Waf1 expression [4, 7] | DNA synthesis (BrdU) [4, 8] | apoptotic changes [4, 8] | morphological difference in mammary structures, C75 treated versus controls [5]
C=C1C(=O)OC(CCCCCCCC)C1C(=O)O (stereo not drawn) [C75, tetrahydro-3-methylene-2-oxo-5-n-octyl-4-furancarboxylic acid] | inhibit fatty acid synthesis in NT5 cells at levels similar to previous studies with human cell lines | significantly reduced the growth of the cancer cells | significantly reduced the growth | ~300 | significantly delayed | ~18 | significantly inhibited the development of cancer | ~1.5 | 6 | restricted to the breast epithelial cells that overexpress neu | significant reduction | decreased | decreased | decreased | decreased | decreased | decreased | increased | no significant morphological difference
C/C=C/C/C=C/CCC(=O)[C@H]1O[C@H]1C(N)=O [cerulenin, 2,3-epoxy-4-oxo-7,10-dodecadienoylamide, reference compound] | inhibit fatty acid synthesis in NT5 cells at levels similar to previous studies with human cell lines | significantly reduced the growth of the cancer cells |  |  |  |  |  |  |  |  |  |  |  |  |  |  |  |  | 
